Assay results reported in patent US20250387359A1, “COMPOUNDS AND METHODS FOR THE TREATMENT OF PARASITIC INFECTIONS” (THE BOARD OF TRUSTEES OF THE UNIVERSITY OF ILLINOIS, priority 2019, published 2025).
Entries after “also recorded” stand apart in the source; their conditions may differ. Where two headings read alike, the source gives them in different places.

Columns and labels:
[1] = biological target: recombinant CpLDH protein (Cryptosporidium parvum, UniProt Q9GT92, F198L/K295E/R251K); conditions: previous studies; cited from earlier work
recombinant CpLDH protein, sequence (Q9GT92 whole entry F198L/K295E/R251K): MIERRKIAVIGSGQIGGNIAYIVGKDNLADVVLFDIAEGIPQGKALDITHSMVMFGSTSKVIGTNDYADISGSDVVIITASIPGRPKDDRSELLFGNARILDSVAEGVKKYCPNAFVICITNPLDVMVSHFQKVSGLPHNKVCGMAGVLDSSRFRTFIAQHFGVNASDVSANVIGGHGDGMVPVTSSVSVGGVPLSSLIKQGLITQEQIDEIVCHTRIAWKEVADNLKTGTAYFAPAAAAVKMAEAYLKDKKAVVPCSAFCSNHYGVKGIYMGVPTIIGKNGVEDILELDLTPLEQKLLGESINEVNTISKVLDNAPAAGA

[2] = biological target: T1, Plasmodium falciparum phosphoethanolamine methyltransferase enzyme (Plasmodium falciparum, UniProt Q8IDQ9); conditions: previously shown; cited from earlier work
T1 sequence (Q8IDQ9 1-266): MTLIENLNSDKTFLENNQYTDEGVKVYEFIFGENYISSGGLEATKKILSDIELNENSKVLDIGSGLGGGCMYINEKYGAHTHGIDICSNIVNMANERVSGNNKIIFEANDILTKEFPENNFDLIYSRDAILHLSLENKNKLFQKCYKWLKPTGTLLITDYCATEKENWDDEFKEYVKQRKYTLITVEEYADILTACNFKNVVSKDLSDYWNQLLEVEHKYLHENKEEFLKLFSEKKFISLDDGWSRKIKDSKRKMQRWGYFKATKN

[3] = Compound cytotoxicity assay (WST-1) in HCT-8 cells; format: cell-based, human; conditions: human; HCT-8 cells, 24 h, WST-1
Procedure: Compound cytotoxicity assay. […] A colorimetric assay using the cell proliferation reagent WST-1 (Roche, USA) for the quantification of cell viability was performed. […] When the cells were confluent, the old medium was replaced with fresh medium with or without varying concentrations of chemical compound. After 24 h of culture, 10 μl of the cell proliferation reagent WST-1, (for quantification of cell viability) was added to each well, mixed and the plates incubated for 1 h at 37 C with 5% CO2 in the dark. […] Molecular Devices, USA).

Tolerability in mice = format: in vivo; conditions: daily oral gavage for 7 days, mice
Procedure: In vivo testing of the anti-Cryptosporidium effect of CpLDH inhibitors. Gamma interferon knockout mice (B6.129S7-Ifng), 8 weeks of age, were purchased from Charles River, USA. The care and use of the mice was done following the guidelines of protocol number 17024 approved by the University of Illinois at Urbana-Champaign, USA. The animals were allowed to acclimatize for 1 week before experiments commenced. Stock solutions of recombinant CpLDH inhibitors reconstituted in DMSO were diluted in sterile distilled water to reduce the final amount of DMSO in the solution to less than 1% (v/v) before administering them to mice. Prior to testing the anti-Cryptosporidium effect of the inhibitors in mice, the tolerability of each inhibitor was tested by oral gavage using varying dosages (100-2000 mg/kg body weight) of each inhibitor in groups of mice (three mice for each dose) daily for 7 days. Mice were observed daily for signs of toxicity including changes from normal physical activity, respiration, body temperature, feeding, posture, fur condition or occurrence of death. […] An equivalent volume of PBS containing a cocktail of penicillin (100 units/ml), streptomycin (100 μg/ml), chloramphenicol (34 μg/ml) and amphotericin (0.25 μg/ml) was added to the fecal samples and stored at 4° C. until use for quantification of C. parvum genomic DNA load. […]

C. parvum [4] = assay: Histopathology of distal small intestine of C. parvum infected mice; format: in vivo, Cryptosporidium parvum; conditions: lower small intestine, H&E, NSC158011 400 mg/kg, NSC10447 250, 500 or 1000 mg/kg, paromomycin 100 mg/kg
Procedure: In vivo testing of the anti-Cryptosporidium effect of CpLDH inhibitors. Gamma interferon knockout mice (B6.129S7-Ifng), 8 weeks of age, were purchased from Charles River, USA. The care and use of the mice was done following the guidelines of protocol number 17024 approved by the University of Illinois at Urbana-Champaign, USA. The animals were allowed to acclimatize for 1 week before experiments commenced. Stock solutions of recombinant CpLDH inhibitors reconstituted in DMSO were diluted in sterile distilled water to reduce the final amount of DMSO in the solution to less than 1% (v/v) before administering them to mice. Prior to testing the anti-Cryptosporidium effect of the inhibitors in mice, the tolerability of each inhibitor was tested by oral gavage using varying dosages (100-2000 mg/kg body weight) of each inhibitor in groups of mice (three mice for each dose) daily for 7 days. Mice were observed daily for signs of toxicity including changes from normal physical activity, respiration, body temperature, feeding, posture, fur condition or occurrence of death. […] The subsequent dosages of NSC10447 used in the mice infection assays were 250, 500 and 1000 mg/kg mouse body weight, while the NSC158011 dosages used were 100, 200 and 400 mg/kg mouse body weight. Mice were allocated to groups as follows: “Infected plus inhibitor treatment”; “Infected minus inhibitor treatment”; “Uninfected minus inhibitor treatment” and “Infected plus paromomycin treatment”. Each group contained at least three mice. Each mouse in the infection groups received 5,000 C. parvum oocysts (resuspended in 50 μl of PBS) by oral gavage. Mice were housed individually in cages lined with sterile gauze as bedding. […] An equivalent volume of PBS containing a cocktail of penicillin (100 units/ml), streptomycin (100 μg/ml), chloramphenicol (34 μg/ml) and amphotericin (0.25 μg/ml) was added to the fecal samples and stored at 4° C. until use for quantification of C. parvum genomic DNA load. […]

Plasmodium falciparum = conditions: previously shown; cited from earlier work
C. parvum [5] = assay: Real-time PCR quantification of C. parvum DNA in fecal samples of infected mice; format: in vivo, Cryptosporidium parvum; conditions: for reduction of shedding of C. parvum in mice feces vs untreated infected mice: day 7 post-infection; for fecal C. parvum DNA load: Table 6, infected mice, multiplier printed in next cell
Procedure: In vivo testing of the anti-Cryptosporidium effect of CpLDH inhibitors. Gamma interferon knockout mice (B6.129S7-Ifng), 8 weeks of age, were purchased from Charles River, USA. The care and use of the mice was done following the guidelines of protocol number 17024 approved by the University of Illinois at Urbana-Champaign, USA. The animals were allowed to acclimatize for 1 week before experiments commenced. Stock solutions of recombinant CpLDH inhibitors reconstituted in DMSO were diluted in sterile distilled water to reduce the final amount of DMSO in the solution to less than 1% (v/v) before administering them to mice. Prior to testing the anti-Cryptosporidium effect of the inhibitors in mice, the tolerability of each inhibitor was tested by oral gavage using varying dosages (100-2000 mg/kg body weight) of each inhibitor in groups of mice (three mice for each dose) daily for 7 days. Mice were observed daily for signs of toxicity including changes from normal physical activity, respiration, body temperature, feeding, posture, fur condition or occurrence of death. […] The subsequent dosages of NSC10447 used in the mice infection assays were 250, 500 and 1000 mg/kg mouse body weight, while the NSC158011 dosages used were 100, 200 and 400 mg/kg mouse body weight. Mice were allocated to groups as follows: “Infected plus inhibitor treatment”; “Infected minus inhibitor treatment”; “Uninfected minus inhibitor treatment” and “Infected plus paromomycin treatment”. Each group contained at least three mice. Each mouse in the infection groups received 5,000 C. parvum oocysts (resuspended in 50 μl of PBS) by oral gavage. Mice were housed individually in cages lined with sterile gauze as bedding. One day post-infection (PI), daily oral gavage administration of recombinant CpLDH inhibitor or paromomycin commenced and continued for a total of 7 days. Untreated mice received an equivalent volume of sterile distilled water (containing DMSO equivalent to the amount administered in the inhibitor-treated group) by oral gavage. Fecal pellets were collected daily from each cage and placed in individual sterile 15 ml conical tubes. An equivalent volume of PBS containing a cocktail of penicillin (100 units/ml), streptomycin (100 μg/ml), chloramphenicol (34 μg/ml) and amphotericin (0.25 μg/ml) was added to the fecal samples and stored at 4° C. until use for quantification of C. parvum genomic DNA load. Three independent replicate infection assays were performed. At 9 days PI, mice were euthanized and 5 cm of the distal small intestine resected 2 cm anterior to the cecum and immediately submerged in 4% buffered formalin. The intestinal tissues were submitted for histopathology to the Veterinary Diagnostic Laboratory at the University of Illinois at Urbana-Champaign. Briefly, intestinal tissues preserved in 4% buffered formalin were washed in 70% ethanol and embedded in 1% agar and then processed for paraffin embedding. For hematoxylin and eosin staining, five μm transverse and cross sections were cut and processed and stained following standard procedures of the Veterinary Diagnostic Laboratory. Sections were imaged using a Zeiss microscope and images captured with a color camera.
Quantification of C. parvum shed in mice feces. Genomic DNA was extracted from individual fecal samples collected from mice at different days as described above. For each sample, 220 mg of homogenized feces were used to extract genomic DNA using the QIAamp PowerFecal DNA Kit (Qiagen, USA) following the manufacturer's instructions. Quantification of the amount of C. parvum 18s rRNA gene (GenBank accession number AF164102) was performed essentially as described previously (Int. J. Parasitol. 2018; 48(8), 649-656). Briefly, primers were used to generate a 240 bp amplicon from C. parvum genomic DNA by conventional PCR. […]

Cryptosporidium parvum [6] = assay: In vitro anti-Cryptosporidium effect in HCT-8 cells (immunofluorescence assay); format: cell-based; conditions: HCT-8 cells; for IC50: Cryptosporidium parvum
Procedure: In vitro testing of the anti-Cryptosporidium effect of CpLDH inhibitors. HCT-8 cells were cultured in supplemented RPMI-1640 medium in 96-well plates. When the cells were confluent, old medium was replaced with fresh medium. To one set of wells, varying concentrations of recombinant CpLDH inhibitors (reconstituted in DMSO and diluted in RPMI medium) were added, while another set was left without inhibitors. Paromomycin was used as a positive control drug reconstituted in distilled sterile water. Then, 4×10^4 freshly excysted sporozoites were added to each well and incubated at 37° C. with 5% CO2. After 2 h incubation, varying concentrations of CpLDH inhibitors were added to the set of infected cells that were not treated initially. Control infected cells without inhibitors, but with added DMSO volumes equivalent to those used in the wells with inhibitors, were included. The cells were maintained in culture for a total of either 48 h or 72 h and processed for immunofluorescence assay as previously described (Int. J. Parasitol. 2017; 47(13), 867-874). Briefly, medium was decanted, and the cells fixed with methanol-acetic acid (9:1) for 2 minutes at room temperature. The cells were rehydrated and permeabilized by two successive washes with buffer (0.1% Triton X-100, 0.35 M NaCl, 0.13 M Tris-base, pH 7.6) and blocked with 5% normal goat serum, followed by staining with antibody to C. parvum (SporoGlo; Waterborn, Inc.) overnight at 4° C. The stained cells were washed twice with PBS, followed by water, and then imaged with an inverted fluorescence microscope. Fluorescence quantification was done using ImageJ version 1.37v software (NIH). Assays were performed in triplicate and repeated at least thrice.

Cryptosporidium parvum [7] = conditions: previously reported by others; read-out: IC50, inhibition of C. parvum growth in HCT-8 cells; cited from earlier work

In the case of `CCCc1c(O)c(O)c(C(=O)O)c2cc(Cc3ccccc3)c(C)cc12` [FX11], the “inhibition of the enzymatic activity of CpLDH” value [1] is listed as “able to inhibit the enzymatic activity of CpLDH”.
For `S=C(CSc1ccccc1)Nc1cccc2ccccc12` [NSC158011], the “inhibition of catalytic activity of P. falciparum phosphoethanolamine methyltransferase” value [2] is listed as “inhibit the catalytic activity”, the IC50 at 24 h [3] is listed as 149 µM and the “highest tolerable dose (no toxicity signs)” value (Tolerability in mice) is listed as 400 mg/kg. For the same compound, the “histopathology of intestinal epithelium and villi” value (C. parvum [4]) was “maintained intact intestinal mucosa and villi; also recorded: intact intestinal epithelium with prominent villi”, the “inhibition of in vitro intracellular growth of P. falciparum” value (Plasmodium falciparum) was “inhibit in vitro intracellular growth of the parasite” and the “efficacy lower than paromomycin” value (C. parvum [5]; NSC158011 200 mg/kg, last three days of treatment) was “about 10 fold”. For the same compound, the “shedding of C. parvum oocysts in mice feces” value (C. parvum [5]; NSC158011 400 mg/kg) was “significantly (P<. 0.05) reduced”, the “reduction of shedding of C. parvum in mice feces vs untreated infected mice” value (C. parvum [5]; NSC158011 400 mg/kg) was “about 3000 fold” and the “effect on parasite growth at 40 μM” value (Cryptosporidium parvum [6]; 48 h post-infection, 40 μM) was “blocking parasite growth almost completely”. The IC50 (Cryptosporidium parvum [6]; 48 h, compound added at the time of infection, read-out: IC50, inhibition of C. parvum growth at 48 h p.i.) was 14.9 µM, the IC50 (Cryptosporidium parvum [6]; 72 h, compound added at the time of infection, read-out: IC50, inhibition of C. parvum growth at 72 h p.i.) was 15.6 µM and the IC50 (Cryptosporidium parvum [6]; compound added 2 h post-infection, read-out: IC50, inhibition of C. parvum growth at 48 h p.i. (2 h)) was 15.8 µM. It also gave an IC50 (Cryptosporidium parvum [6]; compound added 2 h post-infection, read-out: IC50, inhibition of C. parvum growth at 72 h p.i. (2 h)) of 16.5 µM.
For `NC[C@@H]1O[C@H](O[C@H]2[C@@H](O)[C@H](O[C@@H]3[C@@H](O)[C@H](N)C[C@H](N)[C@H]3O[C@H]3O[C@H](CO)[C@@H](O)[C@H](O)[C@H]3N)O[C@@H]2CO)[C@H](N)[C@@H](O)[C@@H]1O` [paromomycin, reference compound], the IC50 (Cryptosporidium parvum [7]) is given as 711 µM, the “histopathology of intestinal epithelium and villi” value (C. parvum [4]) is given as “intact intestinal epithelium with prominent villi” and the “fecal C. parvum DNA load” value (C. parvum [5]; paromomycin 100 mg/kg, DPI 1) is given as 3.1 ± 0.2 ×10^−10 ng/μL. For the same compound, the “fecal C. parvum DNA load” value (C. parvum [5]; paromomycin 100 mg/kg, DPI 2) was 6.6 ± 0.5 ×10^−9 ng/μL, the “fecal C. parvum DNA load” value (C. parvum [5]; paromomycin 100 mg/kg, DPI 3) was 5.2 ± 0.3 ×10^−9 ng/μL and the “fecal C. parvum DNA load” value (C. parvum [5]; paromomycin 100 mg/kg, DPI 4) was 4.7 ± 0.2 ×10^−8 ng/μL. The “fecal C. parvum DNA load” value (C. parvum [5]; paromomycin 100 mg/kg, DPI 5) was 5.0 ± 0.6 ×10^−7 ng/μL, the “fecal C. parvum DNA load” value (C. parvum [5]; paromomycin 100 mg/kg, DPI 6) was 4.8 ± 0.1 ×10^−6 ng/μL and the “fecal C. parvum DNA load” value (C. parvum [5]; paromomycin 100 mg/kg, DPI 7) was 5.1 ± 0.8 ×10^−6 ng/μL. For the same compound, the “fecal C. parvum DNA load” value (C. parvum [5]; paromomycin 100 mg/kg, DPI 8) was 5.4 ± 0.1 ×10^−6 ng/μL, the “reduction of shedding of C. parvum in mice feces vs untreated infected mice” value (C. parvum [5]; paromomycin 100 mg/kg) was “about 3000 fold” and the IC50 (Cryptosporidium parvum [6]; 48 h post-infection, positive control, read-out: IC50, inhibition of C. parvum growth) was 450 µM. It also gave an IC50 (Cryptosporidium parvum [6]; 72 h post-infection, positive control, read-out: IC50, inhibition of C. parvum growth) of 400 µM.
